Legend:
[1] = Size-exclusion chromatography of peptide alone; format: physicochemical; conditions: Superdex Peptide 10/300 GL, RT; 20 μM total peptide
Method: (§1) During SEC experiments, monomeric ATF3 (Figure 8, blue line) and ATF3W_aeg (Figure 8, green line) eluted at approximately 20 min. These contrast with the dimeric profile observed for ATF3-ATF3W_aeg (Figure 8, black line), which occurred at approximately 19 min. For all samples, elution profiles were consistent with either a validated monomer or dimer elution pattern.[15]
(§2) Figure 8 SEC profiles indicate that ATF3W_aeg binds ATF3. Shown are size exclusion chromatography profiles for interacting peptides. The peak at approx 19 min for the ATF3-ATF3W_aeg mixture (black trace) represents a dimeric sample while ATF3 (blue trace) and ATF3W_aeg (green trace) generate a peak at approx 20 min, indicating the presence of a monomer. These experiments, undertaken at a total peptide concentration of 20 μM, provide additional evidence for selectivity of the ATF3-ATF3W_aeg interaction. Arrows show controls from previous peptides with elution times for a 32 mer Fos monomeric peptide (20 min) and a 37 mer cJun–FosW heterodimer (18.5 min).[15]
(§3) Size-exclusion experiments were performed at RT using a Superdex Peptide 10/300 GL column (GE Healthcare Life Sciences) as described previously.[23]

Serum stability = format: in vitro ADME; conditions: human serum (Merck), 75 uL of 600 uM stock in 1425 uL serum, 37 °C, 3-day time course; LC-MS; averages of three experimental repeats
Method: TableS1: Shown are peptide permeability assay on ATF3W-aeg. […]
peptide holding on the membrane.
Peptide permeability assay: To evaluate the peptide permeability, the BD™ pre-coated PAMPA plate system was employed. The 300uL of 200uM peptide in PBS buffer were added in the well of the receiver plate, and slowly placed the filter plate with the 200uL PBS buffer per well on the receiver plate. The peptide concentrations in both plates were determined by UV spectroscopy after the assembly plate system were incubated at room temperature for 5 hours, and the peptide permeability and mass retention were calculated by using the PAMPA plate system formula which recommended in the manufacture manual.
Permeability (in unit of cm/s):
Mass retention: 1 - [CD(t)*VD + CA(t)*VA ]/( C0 * VD)
C0 = initial compound concentration in donor well (mM)
CD(t) = compound concentration in donor well at time t (mM)
CA(t) = compound concentration in acceptor well at time t (mM)
VD = donor well volume = 0.3 mL
VA = acceptor well volume = 0.2 mL […]
Serum stability: The quantity of peptide detected by LC-MS is plotted relative to the starting point […]
Fig S5: Shown are serum stability of ATF3W-aeg. The quantity of peptide detected by LC-MS is plotted […]
The supernatant was analysed by LC-MS, and the peptide was quantified as the sum of the peaks with the two largest intensities1.

ATF3 [2] = target: T1, ATF3 (Homo sapiens, UniProt P18847); assay: CD thermal denaturation of peptide mixed 1:1 with ATF3; format: binding; conditions: peptide incubated with ATF3; CD signal at 222 nm, 1 °C increments; 150 μM total peptide; 10 mM potassium phosphate, 100 mM potassium fluoride, pH 7.0; two-state denaturation model
T1 construct: We focus on the selective targeting of the ATF3 leucine zipper dimerization domain using intracellular peptide library screening; made in house; host or cells: chemical solid-phase peptide synthesis (no expression host)
T1 sequence (P18847 110-143): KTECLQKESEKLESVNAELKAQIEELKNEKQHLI
From the text: Following the observed significant increase in global secondary structure content for the ATF3-ATF3W_aeg complex relative to component peptides (Figure 6), we next analyzed the stability of the complex by undertaking thermal denaturation experiments (Figure 7). […] Moreover, consistent with spectral data, the clear increase from the average profile of the component peptides relative to that of the measured is most pronounced in the combined construct (Figure 7, red hash vs black). This provides robust additional evidence for a preferential interaction between ATF3 and ATF3W_aeg that is improved over either the core a or electrostatic e/g constructs.
Shown are thermal stabilities of peptide pairs measured via temperature dependence of the CD signal at 222 nm. The thermal denaturation profiles for (a) ATF3-ATF3W_a, (b) ATF3-ATF3W_eg, and (c) ATF3-ATF3W_aeg show a substantial increase in the transition midpoint (Tm = 59 °C) relative to component peptides (black vs red hash). Experiments were performed in 10 mM potassium phosphate and 100 mM potassium fluoride (pH 7.0). All spectra were recorded at 1 °C increments at a total peptide concentration of 150 μM and fitted to a two-state denaturation model.
Thermal denaturation experiments were performed at 150 μM total protein concentration in 10 mM potassium phosphate and 100 mM potassium fluoride, pH 7, using an Applied Photophysics Chirascan CD instrument (Leatherhead, UK) as previously described.[23]

ATF3 [3] = target: T1, ATF3; assay: Isothermal titration calorimetry (ITC); format: binding; conditions: 20 °C, pH 7.0
Method: To provide additional insight into the origin of the binding affinity (KD) between ATF3 and ATF3W_aeg, isothermal titration calorimetry (ITC) experiments were performed. […] The free energy of binding was predominantly driven by a favorable enthalpic term (ΔH = −14.6 kcal/mol) and opposed by an unfavorable entropic component (TΔS= −5.33 kcal/mol).
Figure 9 Isothermal titration calorimetry analysis of the ATF3-ATF3W_aeg interaction. In the bottom plot, the solid line represents the fit to the data based on the binding of a ligand to a macromolecule using the MicroCal (GE Healthcare) Origin software.[16] See Materials and Methods for further details.
ITC measurements were made using a Microcal PEAQ-ITC instrument with data collected and processed using the Origin 7.0 software package.[14],[23] All measurements were carried out at least twice. Briefly, all peptides were studied at 20 °C in 10 mM potassium phosphate and 100 mM potassium fluoride at pH 7.0. 40 μL of ATF3W_aeg was loaded into the syringe at 60 μM peptide concentration. 350 μL of ATF3 was loaded into the cell at 6 μM. The experiment was undertaken by injecting 2 μL of ATF3W_aeg 19 times into the calorimetric cell. Following ITC measurements, the data were fit to a one-site model.

ATF3 [4] = target: T1, ATF3; assay: Size-exclusion chromatography of ATF3-ATF3W_aeg mixture; format: binding; conditions: Superdex Peptide 10/300 GL, RT; 20 μM total peptide
Method: as §1, §2, §3

Substance: Ac-ELAALEQKAYALKQENAALEKEVAALEQKIAALK-NH2 (N-terminus and C-terminus assumed) [ATF3W_aeg]
- SEC elution time, peptide alone [1]: approximately 20 min
- oligomeric state in solution by SEC, peptide alone [1]: exclusively as a monomer
- serum stability, peptide quantity relative to starting point (Serum stability): completely degraded
- transition midpoint (Tm) of heterodimer with ATF3 (ATF3 [2]): 60 °C
- N (sites), stoichiometry of binding to ATF3 (ATF3 [3]): 0.72
- TΔS of binding to ATF3 (ATF3 [3]): -5.33 kcal/mol
- ΔG of binding to ATF3 (ATF3 [3]): -9.31 kcal/mol
- ΔH of binding to ATF3 (ATF3 [3]): -14.6 kcal/mol
- SEC elution time of ATF3-ATF3W_aeg mixture (ATF3 [4]): approximately 19 min
- oligomeric state of ATF3-ATF3W_aeg interaction by SEC (ATF3 [4]): exclusively dimeric
